Results reported in publication PMC8370991, “Structural basis for the inhibition of HTLV-1 integration inferred from cryo-EM deltaretroviral intasome structures” (Nature Communications, 2021).
Like-named read-outs stand apart in the source and are kept apart here.

Test system: HTLV-1
Assay: MT-2-Jurkat cell-to-cell HTLV-1 infection, proviral load by qPCR
Format: cell-based
Procedure: Six of the most promising compounds were selected for assessment of their efficacy in inhibiting HTLV-1 viral infection. To this end, we employed an MT-2-Jurkat co-culture relying on cell-to-cell-based HTLV-1 transmission, which we successfully used in a previous study. In this assay format, the infection of Jurkat cells is measured via real-time quantitative PCR (qPCR) determination of the proviral load (PVL). […] A block in the integration reaction was confirmed by Alu-qPCR experiments (Supplementary Fig. 6). […] We suspect this is owing to a more efficient uptake of BIC than RAL by Jurkat T cells.
MT-2 and E6.1 Jurkat T-cell lines (ATCC) were used for the experiments. The cells were cultured at 37 °C with 5% CO2 and maintained in Roswell Park Memorial Institute (RPMI) media supplemented with 10% fetal bovine serum (FBS), 100 U penicillin, 100 μg/mL streptomycin and 0.25 μg/mL fungizone.
The HTLV-1 cell-to-cell infection was performed as previously described; Jurkat T cells were counted and diluted in complete RPMI to a final concentration of 0.25 × 10^6 cells/ml and pre-treated with INSTI drugs (final concentration ranging from 0.2 pM to 2 μM) or DMSO as a control for 24 h. MT-2 cells were resuspended in RPMI at a concentration of 2 × 10^6 cells/ml and subjected to a nonlethal γ-radiation dose of 400 Gy. Cells were resuspended at a concentration of 2 × 10^6 cells/ml in serum-free RPMI supplemented with the corresponding INSTI drug. Co-culture of 0.5 × 10^6 for each cell line was carried out for 16 h, after which cells were washed in PBS and resuspended in 1 ml of depletion buffer (PBS, 0.1% FBS and 2 mM EGTA). MT-2 cells were depleted from the culture by means of anti-CD25 magnetic beads (DynabeadsTM CD25, Thermo Fisher). Depletion efficiency was confirmed via flow cytometry as described previously. Jurkat cells were cultured for 2 weeks in complete RPMI supplemented with the drugs and genomic DNA was extracted (DNeasy kit, Qiagen) and stored at −20 °C for subsequent analysis. All the experiments were done in triplicate.
The PVL was measured as previously described[9],[53],[54]. Jurkat genomic DNA was quantified and diluted to a concentration of 5 ng/μL. Real-time qPCR analysis were conducted on 20 ng of gDNA to measure the level of HTLV-1 tax and gapdh genes (Supplementary Table 5). For the standard curve, the gDNA from an HTLV-1 naturally infected T-cell clone (clone 11.50, courtesy of professor Charles Bangham), which has one copy of tax and two of gapdh, was used. The integrated provirus copy number was calculated as follows: (tax copy numbers)/(2×gapdh copy number)[53], and normalised to the DMSO-treated control which was set to 100%. The PVL data were fitted to a dose–response curve in Prism 7 and the EC50 was calculated. Alu-PCR was performed as previously described in ref. [55]. In brief, the first PCR reaction was done with Phusion polymerase starting from 80 ng of gDNA using the ALU-specific primers (Alu-F/Gag-R). The nested PCR was run diluting the amplificated product 1:50. The reaction was done as a qPCR using Gag-specific primers (Gag-R/Gag-F) and the Luna SYBR dye reaction mix (New England Biolabs). The integrated provirus copy numbers were normalised to GAPDH and Jurkat cells treated with DMSO and infected with HTLV-1 were set to 100%. Experiments were done in triplicate.

[1] = MT-2-Jurkat cell-to-cell infection, proviral load, n = 3, read-out: HTLV-1 EC50 ± stdev
[2] = Replicate 1, read-out: HTLV-1 infection EC50
[3] = Replicate 2, read-out: HTLV-1 infection EC50
[4] = Replicate 3, read-out: HTLV-1 infection EC50
[5] = HTLV-1 infection of Jurkat T cells

| SMILES | EC50 [1] [nM] | EC50 [2] [nM] | EC50 [3] [nM] | EC50 [4] [nM] | improvement in EC50 compared with RAL [5] | lower activity in blocking HTLV-1 infection compared with RAL [5] | EC50 (Primate T-lymphotropic virus 1, read-out: HTLV-1 EC50 ± stdev, MT-2-Jurkat cell-to-cell infection, proviral load, n = 3) [nM] | EC50 (Primate T-lymphotropic virus 1, read-out: HTLV-1 infection EC50, Replicate 1) [nM] | EC50 (Primate T-lymphotropic virus 1, read-out: HTLV-1 infection EC50, Replicate 2) [nM] | EC50 (Primate T-lymphotropic virus 1, read-out: HTLV-1 infection EC50, Replicate 3) [nM] |
| --- | --- | --- | --- | --- | --- | --- | --- | --- | --- | --- |
| CC(C)n1c(C(=O)N(C)C)c2c(c(O)c1=O)C(=O)N(Cc1ccc(F)c(Cl)c1)CC2 [XZ236, 6-(3-chloro-4-fluorobenzyl)-4-hydroxy-2-isopropyl-N,N-dimethyl-3,5-dioxo-2,3,5,6,7,8-hexahydro-2,6-naphthyridine-1-carboxamide, reference compound] | 3.74 ± 1.42 | 5.38 | 1.48 | 4.41 |  |  |  |  |  |  |
| Nc1c(C(=O)NCc2ccc(F)cc2F)c(=O)n(O)c2ncc(CCCO)cc12 [XZ423, 4-amino-N-(2,4-difluorobenzyl)-1-hydroxy-6-(3-hydroxypropyl)-2-oxo-1,2-dihydro-1,8-naphthyridine-3-carboxamide] | 4.11 ± 1.52 | 3.95 | 3.49 | 1.75 |  |  |  |  |  |  |
| Nc1c(C(=O)NCc2ccc(F)cc2F)c(=O)n(O)c2ncc(CCS(=O)(=O)c3ccccc3)cc12 [XZ446, 4-amino-N-(2,4-difluorobenzyl)-1-hydroxy-2-oxo-6-(2-(phenylsulfonyl)ethyl)-1,2-dihydro-1,8-naphthyridine-3-carboxamide] | 2.57 ± 0.81 | 3.46 | 2.16 | 1.94 | ~2.5- to fivefold and two- to fivefold |  |  |  |  |  |
| Nc1c(C(=O)NCc2ccc(F)cc2F)c(=O)n(O)c2ncc(CCC(=O)NCCO)cc12 [XZ448, 4-amino-N-(2,4-difluorobenzyl)-1-hydroxy-6-(3-((2-hydroxyethyl)amino)-3-oxopropyl)-2-oxo-1,2-dihydro-1,8-naphthyridine-3-carboxamide] | 139 ± 81 | 125 | 146 | 116 |  | ~ 20 fold |  |  |  |  |
| CN(C)C(=O)CCc1cnc2c(c1)c(N)c(C(=O)NCc1ccc(F)cc1F)c(=O)n2O [XZ450, 4-amino-N-(2,4-difluorobenzyl)-6-(3-(dimethylamino)-3-oxopropyl)-1-hydroxy-2-oxo-1,2-dihydro-1,8-naphthyridine-3-carboxamide] |  |  |  |  | ~2.5- to fivefold and two- to fivefold |  | 1.67 ± 1.52 | 2.34 | 1.89 | 1.25 |
